# Laboratory results reported in US20150031668A1, “CHROMAN DERIVATIVES AS TRPM8 INHIBITORS” (AMGEN INC., priority 2013, published 2015).
# Structures can show the parent of a compound that is named as a salt.
# Biological target: T1, human TRPM8 (Homo sapiens, UniProt Q7Z2W7)
# T1 construct: expressed in transfected cells; host or cells: Chinese hamster ovary (CHO) cells, T-REx tetracycline-inducible expression system (Invitrogen); co-transfected with pcDNA3.1 aequorin
# Test: Luminescence readout assay for measuring intracellular calcium (aequorin, CHO cells expressing human TRPM8; icilin, L-menthol or cold activation)
# Assay type: cell-based
# Details: CHO cells expressing human TRPM8, icilin activation (1 μM), aequorin luminescence; read-out: hTRPM8 IC50
# How it was run: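 Activation was by 1 μM icilin, 100 μM L-menthol (test compound 2.5 min ahead) or cold buffer below 10° C (compound 1 min ahead). Calcium rise measured as aequorin luminescence in CHO cells with tetracycline-inducible human TRPM8.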
# T1 sequence (Q7Z2W7 whole entry): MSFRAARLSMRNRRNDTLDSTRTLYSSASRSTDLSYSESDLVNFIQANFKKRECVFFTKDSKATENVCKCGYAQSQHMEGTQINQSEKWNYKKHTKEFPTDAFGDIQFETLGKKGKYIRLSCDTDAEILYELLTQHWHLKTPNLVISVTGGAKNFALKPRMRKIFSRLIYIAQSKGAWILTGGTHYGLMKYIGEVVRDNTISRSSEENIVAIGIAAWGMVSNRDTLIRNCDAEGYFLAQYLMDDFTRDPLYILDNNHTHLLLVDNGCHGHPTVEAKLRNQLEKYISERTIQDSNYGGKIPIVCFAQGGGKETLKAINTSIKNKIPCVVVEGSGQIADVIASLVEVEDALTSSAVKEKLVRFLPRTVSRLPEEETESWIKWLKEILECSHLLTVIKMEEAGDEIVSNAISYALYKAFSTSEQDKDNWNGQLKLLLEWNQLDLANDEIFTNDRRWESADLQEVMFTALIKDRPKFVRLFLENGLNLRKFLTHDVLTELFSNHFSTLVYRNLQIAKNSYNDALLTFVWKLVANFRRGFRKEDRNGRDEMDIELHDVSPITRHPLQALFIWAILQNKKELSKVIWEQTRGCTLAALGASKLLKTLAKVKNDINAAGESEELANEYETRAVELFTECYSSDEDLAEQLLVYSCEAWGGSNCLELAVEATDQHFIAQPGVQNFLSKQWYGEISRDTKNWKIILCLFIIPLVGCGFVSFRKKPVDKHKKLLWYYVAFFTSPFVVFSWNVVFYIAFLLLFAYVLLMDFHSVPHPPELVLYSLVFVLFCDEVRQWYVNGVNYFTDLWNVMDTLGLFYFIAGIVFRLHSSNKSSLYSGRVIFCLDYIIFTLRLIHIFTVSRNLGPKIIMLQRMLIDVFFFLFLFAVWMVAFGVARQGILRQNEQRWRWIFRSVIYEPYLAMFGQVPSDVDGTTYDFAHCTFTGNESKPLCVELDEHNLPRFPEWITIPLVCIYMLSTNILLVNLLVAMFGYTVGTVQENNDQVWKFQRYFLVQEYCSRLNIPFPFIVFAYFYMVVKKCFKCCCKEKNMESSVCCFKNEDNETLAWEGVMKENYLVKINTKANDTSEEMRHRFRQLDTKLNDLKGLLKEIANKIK
row,SMILES,IC50
1,"COC(=O)c1ccc(C(=O)N[C@]2(c3ccc(Cl)c(Cl)c3)CCOc3cccnc32)nc1 [Example 183, (S)-methyl 6-((4-(3,4-dichlorophenyl)-3,4-dihydro-2H-pyrano[3,2-b]pyridin-4-yl)carbamoyl) nicotinate]",21 nM
2,"O=C(Nc1ccc(-c2noc(=O)[nH]2)nc1)N[C@]1(c2ccc(OC(F)(F)F)c(F)c2)CCOc2cccnc21 [Example 109, (S)-1-(4-(3-fluoro-4-(trifluoromethoxy)phenyl)-3,4-dihydro-2H-pyrano[3,2-b]pyridin-4-yl)-3-(6-(5-oxo-4,5-dihydro-1,2,4-oxadiazol-3-yl)pyridin-3-yl)urea]",3060 nM
3,"Cn1cc(C(=O)N[C@]2(c3ccc(OC(F)(F)F)cc3)CCOc3cccnc32)c2ccccc21 [Example 257, (S)-1-methyl-N-(4-(4-(trifluoromethoxy)phenyl)-3,4-dihydro-2H-pyrano[3,2-b]pyridin-4-yl)-1H-indole-3-carboxamide formate]",59 nM
4,"O=C(N[C@]1(c2cccc(OC(F)(F)F)c2)CCOc2cccnc21)c1ccccc1 (single isomer, unassigned) [Example 17]",60 nM
5,"O=C(N[C@]1(c2ccc(C(F)(F)F)cc2)CCOc2cccnc21)c1ccns1 [Example 41, (S)-N-(4-(4-(trifluoromethyl)phenyl)-3,4-dihydro-2H-pyrano[3,2-b]pyridin-4-yl)isothiazole-5-carboxamide]",87 nM
6,"Cn1nc2c(c1C(=O)N[C@]1(c3ccc(OC(F)(F)F)cc3)CCOc3cccnc31)CCCC2 [Example 270, (S)-2-methyl-N-(4-(4-(trifluoromethoxy)phenyl)-3,4-dihydro-2H-pyrano[3,2-b]pyridin-4-yl)-4,5,6,7-tetrahydro-2H-indazole-3-carboxamide formate]",44 nM
7,"O=C(NC1(c2ccc(OC(F)(F)F)cc2)CCOc2cccnc21)c1ccc2oc(=O)[nH]c2c1 (stereo not drawn) [Example 23, 2-oxo-N-(4-(4-(trifluoromethoxy)phenyl)-3,4-dihydro-2H-pyrano[3,2-b]pyridin-4-yl)-2,3-dihydrobenzo[d]oxazole-5-carboxamide]",12 nM
8,"O=C(N[C@]1(c2ccc(OC(F)(F)F)c(F)c2)CCOc2cccnc21)N1CCC(O)CC1 [Example 102, (S)-N-(4-(3-fluoro-4-(trifluoromethoxy)phenyl)-3,4-dihydro-2H-pyrano[3,2-b]pyridin-4-yl)-4-hydroxypiperidine-1-carboxamide]",218 nM
9,"O=C(N[C@]1(c2ccc(-c3cccc(F)c3O)cc2)CCOc2cccnc21)c1ccc(F)cc1 [Example 134, (S)-4-fluoro-N-(4-(3′-fluoro-2′-hydroxy-[1,1′-biphenyl]-4-yl)-3,4-dihydro-2H-pyrano[3,2-b]pyridin-4-yl)benzamide]",320 nM
10,"O=C(NC1(c2ccc(C(F)(F)F)cc2)CCOc2cccnc21)c1ccc2c(c1)CNC2=O (stereo not drawn) [Example 80, 1-oxo-N-(4-(4-(trifluoromethyl)phenyl)-3,4-dihydro-2H-pyrano[3,2-b]pyridin-4-yl)isoindoline-5-carboxamide]",21 nM
11,"O=C(N[C@]1(c2ccc(-c3cccnc3)cc2)CCOc2cccnc21)c1ccc(F)cc1 [Example 115, (S)-4-fluoro-N-(4-(4-(pyridin-3-yl)phenyl)-3,4-dihydro-2H-pyrano[3,2-b]pyridin-4-yl)benzamide]",341 nM
12,"O=C(NC1(c2ccc(Cl)c(Cl)c2)CCOc2cccnc21)c1ccc2oc(=O)[nH]c2c1 (stereo not drawn) [Example 25, N-(4-(3,4-dichlorophenyl)-3,4-dihydro-2H-pyrano[3,2-b]pyridin-4-yl)-2-oxo-2,3-dihydrobenzo[d]oxazole-5-carboxamide]",19 nM
13,"O=C(N[C@]1(c2ccc(C(F)(F)F)cc2)CCOc2cccnc21)c1ccncn1 [Example 35, (S)-N-(4-(4-(trifluoromethyl)phenyl)-3,4-dihydro-2H-pyrano[3,2-b]pyridin-4-yl)pyrimidine-4-carboxamide]",200 nM
14,O=C(N[C@]1(c2ccc(OC(F)(F)F)c(F)c2)CCOc2cccnc21)N1CCC(F)(F)CC1 [Example 100],187 nM
15,"O=C(Nc1cccc(F)c1)N[C@]1(c2ccc(C(F)(F)F)cc2)CCOc2cccnc21 [Example 72, (S)-1-(3-fluorophenyl)-3-(4-(4-(trifluoromethyl)phenyl)-3,4-dihydro-2H-pyrano[3,2-b]pyridin-4-yl)urea]",112 nM
16,"O=C(N[C@]1(c2ccc(OC(F)(F)F)cc2)CCOc2cccnc21)c1ccc2nsnc2c1 [Example 269, (S)-N-(4-(4-(trifluoromethoxy)phenyl)-3,4-dihydro-2H-pyrano[3,2-b]pyridin-4-yl) benzo[c][1,2,5] thiadiazole-5-carboxamide formate]",24 nM
17,"O=C(N[C@]1(c2ccc(C(F)(F)F)cc2)CCOc2cccnc21)c1ccc2cn[nH]c2c1 [Example 34, (S)-N-(4-(4-(trifluoromethyl)phenyl)-3,4-dihydro-2H-pyrano[3,2-b]pyridin-4-yl)-1H-indazole-6-carboxamide]",24 nM
18,"O=C(N[C@]1(c2ccc(C(F)(F)F)cc2)CCOc2cccnc21)c1cc(F)c(O)c(F)c1 [Example 205, (S)-3,5-difluoro-4-hydroxy-N-(4-(4-(trifluoromethyl)phenyl)-3,4-dihydro-2H-pyrano[3,2-b]pyridin-4-yl) benzamide]",4 nM
19,"O=C(N[C@]1(c2ccc(OC(F)(F)F)c(F)c2)CCOc2cccnc21)N1CCCCC1 [Example 98, (S)-N-(4-(3-fluoro-4-(trifluoromethoxy)phenyl)-3,4-dihydro-2H-pyrano[3,2-b]pyridin-4-yl)piperidine-1-carboxamide]",23 nM
20,"O=C(N[C@]1(c2ccc(C(F)(F)F)c(F)c2)CCOc2cccnc21)c1ccccc1 (single isomer, unassigned) [Example 19]",12 nM
21,"O=C(NC1(c2ccccc2)CCOc2cccnc21)c1ccccc1 (stereo not drawn) [Example 12, N-(4-phenyl-3,4-dihydro-2H-pyrano[3,2-b]pyridin-4-yl)benzamide]",2070 nM

# Results, then the compound that gave them:
row,IC50,SMILES
1,8 nM,"CNC(=O)c1ccc(C(=O)N[C@]2(c3ccc(OC(F)(F)F)c(F)c3)CCOc3cccnc32)cc1C [Example 296, (S)—N4-(4-(3-fluoro-4-(trifluoromethoxy)phenyl)-3,4-dihydro-2H-pyrano[3,2-b]pyridin-4-yl)-N1,2-dimethylterephthalamide]"
2,55 nM,"CNC(=O)c1cccc(C(=O)N[C@]2(c3ccc(OC(F)(F)F)c(F)c3)CCOc3cccnc32)c1 [Example 309, (S)—N1-(4-(3-fluoro-4-(trifluoromethoxy)phenyl)-3,4-dihydro-2H-pyrano[3,2-b]pyridin-4-yl)-N3-methylisophthalamide]"
3,404 nM,"O=C(N[C@]1(c2ccc(OC(F)(F)F)c(F)c2)CCOc2cccnc21)N1CCC1 [Example 105, (S)-N-(4-(3-fluoro-4-(trifluoromethoxy)phenyl)-3,4-dihydro-2H-pyrano[3,2-b]pyridin-4-yl)azetidine-1-carboxamide]"
4,19 nM,"COC(=O)c1cccc(NC(=O)N[C@]2(c3ccc(OC(F)(F)F)c(F)c3)CCOc3cccnc32)c1 [Example 91, (S)-methyl 3-(3-(4-(3-fluoro-4-(trifluoromethoxy)phenyl)-3,4-dihydro-2H-pyrano[3,2-b]pyridin-4-yl)ureido)benzoate]"
5,9 nM,"Cn1c(C(=O)O)cc2ccc(C(=O)N[C@]3(c4ccc(OC(F)(F)F)c(F)c4)CCOc4cccnc43)cc21 [Example 322, (S)-6-((4-(3-fluoro-4-(trifluoro-methoxy)phenyl)-3,4-dihydro-2H-pyrano[3,2-b]pyridin-4-yl)carbamoyl)-1-methyl-1H-indole-2-carboxylic acid]"
6,146 nM,"CC1(C)COC(c2ccc(C(=O)N[C@]3(c4ccc(OC(F)(F)F)c(F)c4)CCOc4cccnc43)cc2)=N1 [Example 168, (S)-4-(4,4-dimethyl-4,5-dihydrooxazol-2-yl)-N-(4-(3-fluoro-4-(trifluoromethoxy)phenyl)-3,4-dihydro-2H-pyrano[3,2-b]pyridin-4-yl)benzamide]"
7,584 nM,"COC(=O)c1ccn(CC(=O)N[C@]2(c3ccc(OC(F)(F)F)c(F)c3)CCOc3cccnc32)c1 [Example 193, (S)-melhyl 1-(2-((4-(3-fluoro-4-(trifluoromethoxy)phenyl)-3,4-dihydro-2H-pyrano[3,2-b]pyridin-4-yl)amino)-2-oxoethyl)-1H-pyrrole-3-carboxylate]"
8,54 nM,"CCOC(=O)c1cc(C(=O)N[C@]2(c3ccc(OC(F)(F)F)c(F)c3)CCOc3cccnc32)c[nH]1 [Example 187, (S)-ethyl 4-((4-(3-fluoro-4-(trifluoromethoxy)phenyl)-3,4-dihydro-2H-pyrano[3,2-b]pyridin-4-yl)carbamoyl)-1H-pyrrole-2-carboxylate]"
9,14 nM,"COC(=O)c1c(C)cc(C(=O)N[C@]2(c3ccc(OC(F)(F)F)c(F)c3)CCOc3cccnc32)cc1C [Example 181, (S)-methyl 4-((4-(3-fluoro-4-(trifluoromethoxy)phenyl)-3,4-dihydro-2H-pyrano[3,2-b]pyridin-4-yl)carbamoyl)-2,6-dimethylbenzoate]"
10,11 nM,"CCc1cc(C(=O)N[C@]2(c3ccc(OC(F)(F)F)c(F)c3)CCOc3cccnc32)ccc1C(=O)OC [Example 191, (S)-methyl 2-ethyl-4-((4-(3-fluoro-4-(trifluoromethoxy)phenyl)-3,4-dihydro-2H-pyrano[3,2-b]pyridin-4-yl)carbamoyl) benzoate]"
11,5 nM,"O=C(N[C@]1(c2ccc(OC(F)(F)F)c(F)c2)CCOc2cccnc21)c1ccc(O)cn1 [Example 51, (S)-N-(4-(3-fluoro-4-(trifluoromethoxy)phenyl)-3,4-dihydro-2H-pyrano[3,2-b]pyridin-4-yl)-5-hydroxypicolinamide]"
12,150 nM,"O=C(Nc1cccc(C(=O)O)c1)N[C@]1(c2ccc(OC(F)(F)F)c(F)c2)CCOc2cccnc21 [Example 107, (S)-3-(3-(4-(3-fluoro-4-(trifluoromethoxy)phenyl)-3,4-dihydro-2H-pyrano[3,2-b]pyridin-4-yl)ureido)benzoic acid]"
